These results are taken from US10703746B2, “Mutant IDH1 inhibitors useful for treating cancer” (THE UNITED STATES OF AMERICA, AS REPRESENTED BY THE …, priority 2014, dated 2020).

One experiment has as its target IDH1 R132H (Homo sapiens, UniProt O75874, R132H). In words: IDH1 R132H enzymatic assay (NADPH depletion coupled to diaphorase/resazurin). The class given is biochemical. As to conditions: enzymatic inhibition, IDH1 R132H. In general terms: Resazurin is reduced to fluorescent resorufin, in cell work by metabolically active cells.
In the next experiment the target is IDH1 R132C (Homo sapiens, UniProt O75874, R132C). In words: IDH1 R132C enzymatic assay (NADPH depletion coupled to diaphorase/resazurin). The following applies: enzymatic inhibition, IDH1 R132C. It counts as biochemical. The method in brief: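 NADPH depletion, read via diaphorase/resazurin coupling, after adding substrate at 0.6 mM α-KG and 0.012 mM NADPH. Beforehand, 0.00032 mg/mL enzyme sat with compound 30 min at room temperature in pH 6.5 potassium phosphate buffer with MgCl2, glycerol and BSA.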
Chain of IDH1 R132C (O75874 whole entry R132C): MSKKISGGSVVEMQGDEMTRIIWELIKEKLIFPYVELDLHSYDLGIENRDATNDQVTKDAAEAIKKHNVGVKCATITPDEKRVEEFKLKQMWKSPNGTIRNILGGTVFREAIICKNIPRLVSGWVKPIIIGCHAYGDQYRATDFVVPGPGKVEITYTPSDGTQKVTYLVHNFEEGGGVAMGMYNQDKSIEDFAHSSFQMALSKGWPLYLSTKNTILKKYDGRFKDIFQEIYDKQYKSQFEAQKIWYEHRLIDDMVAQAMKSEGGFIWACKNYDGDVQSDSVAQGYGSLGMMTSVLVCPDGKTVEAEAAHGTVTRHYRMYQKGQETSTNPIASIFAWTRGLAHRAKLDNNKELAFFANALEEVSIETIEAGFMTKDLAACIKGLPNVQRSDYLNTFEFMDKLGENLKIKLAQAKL

Each structure is given as a SMILES string.

Chain of IDH1 R132H (O75874 whole entry R132H): as the sequence (O75874 whole entry R132C) above, with C132H counted along it

The term IC50 denotes the midpoint of a concentration-inhibition curve. With `COc1ccccc1-n1c2c(cc(-c3nc(-c4ccc(Cl)cc4)cs3)c1=O)C(=O)CCC2` [Compound 503], the IC50 on IDH1 R132H and at IDH1 R132C was 1000 to 5000 nM in each case.
Consider `CCc1cccc(CC)c1-n1c(CC(C)C)c(C(=O)N2CCNCC2)cc(-c2csc(-c3ccc(Cl)cc3)n2)c1=O` [Compound 505], for which the IC50 against IDH1 R132H and against IDH1 R132C was < 300 nM each time.
On to `CCc1cccc(CC)c1-n1c(CC2CCCO2)c(C(=O)N2CCNCC2)cc(-c2nc(-c3ccc(Cl)cc3)cs2)c1=O` (centres unmarked) [Compound 506], for which the IC50 at IDH1 R132H and at IDH1 R132C was < 300 nM each time.
Take `CCc1ncc(F)cc1-n1c(C=C(C)C)c(C(=O)N2CCNCC2)cc(-c2nc(-c3ccc(Cl)cc3)cs2)c1=O` [Compound 507]: the 50% inhibitory concentration (IC50) on IDH1 R132H and against IDH1 R132C was < 300 nM in each case.
On to `CCc1cccc(OC(C)C)c1-n1c(C=C(C)C)c(C(=O)N2CCNCC2)cc(-c2nc(-c3ccc(Cl)cc3)cs2)c1=O` [Compound 508], for which the IC50 at IDH1 R132H and against IDH1 R132C was < 300 nM in each case.
For the compound `COc1ccc(C#N)cc1-n1c2c(cc(-c3nc(-c4ccc(Cl)cc4)cs3)c1=O)C(=O)CC(C)(C)C2` [Compound 509], the IC50 on IDH1 R132H and against IDH1 R132C was 1000 to 5000 nM in each case.
Regarding `CCc1cccc(CC)c1-n1c(C=C(C)C)c(C(=O)N2CCNCC2)cc(-c2ccn(-c3ccc(C(F)(F)F)cc3)n2)c1=O` [Compound 511], the IC50 against IDH1 R132H and at IDH1 R132C was < 300 nM each time.
Regarding `CCc1cccc(CC)c1-n1c(C=C(C)C)c(C(=O)N2CC3(CNC3)C2)cc(-c2nc(-c3ccc(Cl)cc3)cs2)c1=O` [Compound 512], the concentration for half-maximal inhibition (IC50) at IDH1 R132H and at IDH1 R132C was < 300 nM in each case.
For the compound `CCOc1ncc(Cl)cc1-n1c(C=C(C)C)c(C(=O)N2CCNCC2)cc(-c2nc(-c3ccc(C(F)(F)F)nc3)cs2)c1=O` [Compound 513], the IC50 against IDH1 R132H is < 300 nM; against IDH1 R132C, 300 to 1000 nM.
On the same counts, the results for `O=c1c(-c2nc(-c3ccc(Cl)cc3)cs2)cc2c(O)cccc2n1-c1cccnc1` [Compound 514] are > 20000 nM and 1000 to 5000 nM.
With `CCc1cccc(CC)c1-n1c(C=C(C)C)c(C(=O)N2CCNCC2)cc(-c2nc(-c3ccc(C(F)(F)F)cn3)cs2)c1=O` [Compound 515], the IC50 on IDH1 R132H and against IDH1 R132C was < 300 nM each time.
`CCc1cccc(CC)c1-n1c(CC(C)C)c(C(=O)N2CCNCC2)cc(-c2nc(-c3ccc(C(F)F)cc3)c(C)s2)c1=O` [Compound 517]: the IC50 against IDH1 R132H and at IDH1 R132C was < 300 nM each time.
`CCc1cccc(CC)c1-n1c(-c2cccn2C)c(C(=O)N2CCNCC2)cc(-c2nc(-c3ccc(Cl)cc3)cs2)c1=O` [Compound 518]: the IC50 at IDH1 R132H and against IDH1 R132C was < 300 nM each time.
`CCc1cccc(CC)c1-n1c(C=C(C)C)c(C(=O)N2CCC3(CNC3)C2)cc(-c2nc(-c3ccc(Cl)cc3)cs2)c1=O` [Compound 519]: the figures for the IC50 at IDH1 R132H and against IDH1 R132C were 300 to 1000 nM and < 300 nM, respectively.
On the same counts, the results for `CCOc1ncc(F)cc1-n1c(C=C(C)C)c(C(=O)N2CCNCC2)cc(-c2nc(-c3ccc(C(F)F)nc3)cs2)c1=O` [Compound 520] are < 300 nM and 1000 to 5000 nM.
In the same order, the values of `CC1(C)CC(=O)c2cc(-c3nc(-c4ccc(Cl)cc4)cs3)c(=O)n(-c3cc(Cl)ccc3Cl)c2C1` [Compound 522] are 1000 to 5000 nM and 300 to 1000 nM.
In the same order, the values of `CCc1cccc(CC)c1-n1c(C=C(C)C)c(C(=O)N(C)C2CCNCC2)cc(-c2nc(-c3ccc(Cl)cc3)cs2)c1=O` [Compound 523] are < 300 nM and < 300 nM.
For `CCc1ncc(F)cc1-n1c(C=C(C)C)c(C(=O)N2CCNCC2)cc(-c2nc(-c3ccc(C(F)F)cc3)cs2)c1=O` [Compound 524], the IC50 at IDH1 R132H and at IDH1 R132C was < 300 nM each time.
`CCc1cccc(CC)c1-n1c2c(cc(-c3nc(-c4ccc(Cl)cc4)cs3)c1=O)C(=O)CCC2` [Compound 525]: the IC50 against IDH1 R132H and at IDH1 R132C was 1000 to 5000 nM throughout.
